Data as given in paper PMC4748415, “Impact of different cell penetrating peptides on the efficacy of antisense therapeutics for targeting intracellular pathogens” (Scientific Reports, 2016).
Entries after “also recorded” stand apart in the source; their conditions may differ. Where two headings read alike, the source gives them in different places. Marks after values point to notes of the source that are not given here.

Key:
L. monocytogenes F4244 [1] = experiment: Time kill assay; type: cell-based, Listeria monocytogenes; conditions: 8 μM PNA, 37 °C, samples every 20 minutes, inoculum 2.4 × 10^5 CFU/ml
[2] = system: L. monocytogenes J0161 in infected C. elegans; experiment: C. elegans infection model; conditions: 18 hours treatment; for Log CFUs reduction: versus water
Procedure: To test the efficacy of PNA in vivo we used Listeria-infected C. elegans. The temperature-sensitive sterile mutant strain C. elegans AU37 [sek-1(km4); glp-4(bn2) I] was used for this study. This strain is sterile at room temperature and can lay eggs only at 15 °C. Furthermore, mutation in the sek-1 gene of the p38 mitogen-activated protein kinase pathway (p38 MAPK pathway), makes this particular C. elegans strain more susceptible to Listeria infection[49][56]. Initially, the pathogenicity of three strains of Listeria (F4244, J0161 and ATCC19111) was tested in C. elegans as described before[24] to determine the most virulent strain to use for this study. […] Briefly, adult worms were grown for 5 days, at 15 °C (temperature that permits worms to lay eggs) on NGM agar plates seeded with a lawn of E. coli OP50. The eggs were harvested by bleaching[57] and maintained for 24 hours at room temperature with gentle agitation for hatching. Hatched larvae were transferred to a new NGM plate seeded with E. coli OP50 and were kept at room temperature for five days until worms reached the adult stage of growth. Adult worms were collected and washed three times with M9 media in a 1:10 ratio to remove E. coli before transfer to LB agar plates seeded with a lawn of L. monocytogenes J0161 for infection. After eight hours of infection, worms were collected and washed with M9 buffer five times before incubation with PNAs. Worms were transferred to low-binding microcentrifuge tubes (10 worms per tube). […] After treatment for 18 hours, worms were washed five times with M9 buffer. […] Samples were serially diluted and plated onto TSA plates containing 5 μg/ml nalidixic acid to select for Listeria.

[3] = system: cytoplasmic membrane of L. monocytogenes F4244; experiment: Calcein leakage assay; type: cell-based, Listeria monocytogenes; conditions: 30 min exposure; PRXR 8 × MIC (8 μM), nisin 5 × MIC (10 μg/ml); fluorescence, n = 3
Procedure: To investigate the effect of PNA on the integrity of the Listeria cell membrane, the leakage of the preloaded fluorescent dye, calcein, was monitored and quantified as described before with a few modifications. Briefly, 20 ml of logarithmic growth phase (OD600 = 1.0, ~10^9 CFU/ml) L. monocytogenes F4244 was centrifuged and bacteria were resuspended in 9 ml of sterile PBS plus 1 ml of BHI. 3 μM of calcein AM dye was added to the bacterial suspension prior to covering the suspension with aluminum foil and incubating for one hour at 37 °C. After 10 minutes centrifugation at 3,000 × g, the supernatant was discarded. The calcein-loaded bacterial cells were resuspended in 30 ml of sterile PBS and 100 μL calcein-loaded bacteria were distributed in a 96-well microtiter plate (in triplicate). PRXR was added in a concentration equal to 8 × MIC (8 μM). Nisin 5 × MIC (10 μg/ml) and sterile water were used as positive and negative controls, respectively. Intensity of fluorescence (calcein leakage) was detected every 5 minutes for 30 minutes using a fluorescence plate reader (FLx800 model BioTek® Instruments, Inc. Winooski, Vermont) with the excitation and emission filters adjusted to 485 nm and 520 nm, respectively.

L. monocytogenes F4244 [4] = experiment: Time kill assay; type: cell-based, Listeria monocytogenes; conditions: 12 hours
Procedure: L. monocytogenes F4244 in logarithmic growth phase was diluted to ~10^5 CFU/ml and incubated with 32 μM of the five PNAs (in triplicates) at 37 °C for 12 hours. Samples were collected every two hours, serially diluted, and plated onto TSA plates. Plates were then incubated wat 37 °C for 24 hours before viable CFUs were determined.
Samples were collected every 20 minutes and processed as above.

[5] = system: clinical isolates of L. monocytogenes; type: cell-based, Listeria monocytogenes; conditions: for MIC: broth microdilution in low binding tubes, triplicates, 16 hour incubation
Procedure: (§1) The MICs of conjugated PNAs, free PNA, CPPs and untreated control against L. monocytogenes were determined using the broth microdilution method according to the Clinical and Laboratory Standards Institute (CLSI) guidelines with the following modifications. Briefly, low binding clear microcentrifuge tubes (USA scientific, Inc. Ocala, FL) were used in triplicates for each reaction instead of traditional 96-well plates. […] After a 16 hour incubation period (of test agent with bacteria), the number of viable bacteria was enumerated by serial dilution and counting on TSA plates. The MICs were repeated at least twice.

L. monocytogenes F4244 [6] = experiment: Concentration-dependent bacterial log reduction in pure culture; type: cell-based, Listeria monocytogenes; conditions: for Log CFU/ml: pure culture F4244, 16 hour incubation; for Log CFU reduction: relative to control, pure culture F4244
Procedure: as §1

MRSA USA300 = experiment: MIC against MRSA in pure culture; type: cell-based; conditions: multiple of the Listeria MIC, data not shown
[7] = system: L. monocytogenes F4244 inside infected J774A.1 cells; type: cell-based; conditions: 4 hours; for Log CFU/ml: intracellular F4244 in J774A.1; for Log CFU reduction: intracellular F4244 in J774A.1, versus control

In the case of “RXRRXRRXRRXRXB-O-cgatcattcaaa-NH2 [PRXR, anti-rpoA PNA covalently conjugated to the (RXR)4XB CPP]”, the “time to complete elimination of starting inoculum” value (L. monocytogenes F4244 [1]) is reported as at most 20 min, the “Log CFUs/worm” value ([2]; 16 µM, 10 worms in triplicates) is reported as 2.24±0.99 Log CFUs/worm and the “Log CFUs reduction” value ([2]; 16 µM) is reported as 1.91 Log CFUs. The “Log CFUs reduction” value ([2]; 32 µM) was 4.38 Log CFUs, the calcein leakage [3] was “did not result in leakage; also recorded: does not permeabilize the bacterial cell membrane” and the “time to complete eradication of Listeria” value (L. monocytogenes F4244 [4]; 32 μM PNA, 37 °C, samples every 2 hours, ~10^5 CFU/ml) was at most 2 h. The “bactericidal or bacteriostatic activity” value (L. monocytogenes F4244 [4]; L. monocytogenes, time kill at 32 μM) was “bactericidal activity”, the MIC50 ([5]; concentration required to inhibit 50% of L. monocytogenes isolates (six isolates)) was 1 µM and the MIC ([5]; strain ATCC 13932) was 2 µM. The MIC ([5]; strain ATCC 19111) was 1 µM, the MIC ([5]; strain ATCC 19112) was 1 µM and the MIC ([5]; strain ATCC 19114) was 0.25 µM. The MIC ([5]; strain F4244, no turbidity) was 1 µM, the MIC ([5]; strain J0161) was 4 µM and the “Log CFU/ml” value (L. monocytogenes F4244 [6]; 1 µM PNA) was 6.87±0.84 Log CFU/ml. For the same substance, the “Log CFU reduction” value (L. monocytogenes F4244 [6]; 1 µM PNA) was 2.51 Log CFU, the “Log CFU/ml” value (L. monocytogenes F4244 [6]; 2 µM PNA) was 3.15±0.21 Log CFU/ml and the “Log CFU reduction” value (L. monocytogenes F4244 [6]; 2 µM PNA) was 6.24 Log CFU. For the same substance, the “Log CFU/ml” value (L. monocytogenes F4244 [6]; 4 µM PNA) was “Cleared”, the “Log CFU reduction” value (L. monocytogenes F4244 [6]; 4 µM PNA) was 9.39 Log CFU and the “Log CFU/ml” value (L. monocytogenes F4244 [6]; 8 µM PNA) was “Cleared”. For the same substance, the “Log CFU reduction” value (L. monocytogenes F4244 [6]; 8 µM PNA) was 9.39 Log CFU, the “Log CFU/ml” value (L. monocytogenes F4244 [6]; 16 µM PNA) was “Cleared” and the “Log CFU reduction” value (L. monocytogenes F4244 [6]; 16 µM PNA) was 9.39 Log CFU. For the same substance, the “Log CFU/ml” value (L. monocytogenes F4244 [6]; 32 µM PNA) was “Cleared”, the “Log CFU reduction” value (L. monocytogenes F4244 [6]; 32 µM PNA) was 9.39 Log CFU and the “concentration without inhibition of bacterial growth” value (MRSA USA300) was over 16 × MIC. The “Log CFU/ml” value ([7]; 2 μM) was 4.95 ± 0.07 Log CFU/ml, the “Log CFU reduction” value ([7]; 2 μM) was 1.78 Log CFU and the “Log CFU/ml” value ([7]; 4 μM) was 3.079 Log CFU/ml. For the same substance, the “Log CFU reduction” value ([7]; 4 μM) was 3.65* Log CFU, the “Log CFU/ml” value ([7]; 8 μM) was “complete clearance; also recorded: cleared” and the “Log CFU reduction” value ([7]; 8 μM) was 6.73* Log CFU.
